According to ChEMBL document CHEMBL4359851, “Design, synthesis, and biological evaluation of a new class of histone acetyltransferase p300 inhibitors” (Eur J Med Chem, 2019):

Target: Histone acetyltransferase p300 (Homo sapiens, UniProt Q09472)
Experiment: Inhibition of p300 (unknown origin) using biotinylated histone H3 (1 to 21 residues) as substrate measured after 90 mins in presence of Acetyl CoA by AlphaLISA assay

Sequence of Histone acetyltransferase p300 (Q09472 whole entry, the tested form may be a part): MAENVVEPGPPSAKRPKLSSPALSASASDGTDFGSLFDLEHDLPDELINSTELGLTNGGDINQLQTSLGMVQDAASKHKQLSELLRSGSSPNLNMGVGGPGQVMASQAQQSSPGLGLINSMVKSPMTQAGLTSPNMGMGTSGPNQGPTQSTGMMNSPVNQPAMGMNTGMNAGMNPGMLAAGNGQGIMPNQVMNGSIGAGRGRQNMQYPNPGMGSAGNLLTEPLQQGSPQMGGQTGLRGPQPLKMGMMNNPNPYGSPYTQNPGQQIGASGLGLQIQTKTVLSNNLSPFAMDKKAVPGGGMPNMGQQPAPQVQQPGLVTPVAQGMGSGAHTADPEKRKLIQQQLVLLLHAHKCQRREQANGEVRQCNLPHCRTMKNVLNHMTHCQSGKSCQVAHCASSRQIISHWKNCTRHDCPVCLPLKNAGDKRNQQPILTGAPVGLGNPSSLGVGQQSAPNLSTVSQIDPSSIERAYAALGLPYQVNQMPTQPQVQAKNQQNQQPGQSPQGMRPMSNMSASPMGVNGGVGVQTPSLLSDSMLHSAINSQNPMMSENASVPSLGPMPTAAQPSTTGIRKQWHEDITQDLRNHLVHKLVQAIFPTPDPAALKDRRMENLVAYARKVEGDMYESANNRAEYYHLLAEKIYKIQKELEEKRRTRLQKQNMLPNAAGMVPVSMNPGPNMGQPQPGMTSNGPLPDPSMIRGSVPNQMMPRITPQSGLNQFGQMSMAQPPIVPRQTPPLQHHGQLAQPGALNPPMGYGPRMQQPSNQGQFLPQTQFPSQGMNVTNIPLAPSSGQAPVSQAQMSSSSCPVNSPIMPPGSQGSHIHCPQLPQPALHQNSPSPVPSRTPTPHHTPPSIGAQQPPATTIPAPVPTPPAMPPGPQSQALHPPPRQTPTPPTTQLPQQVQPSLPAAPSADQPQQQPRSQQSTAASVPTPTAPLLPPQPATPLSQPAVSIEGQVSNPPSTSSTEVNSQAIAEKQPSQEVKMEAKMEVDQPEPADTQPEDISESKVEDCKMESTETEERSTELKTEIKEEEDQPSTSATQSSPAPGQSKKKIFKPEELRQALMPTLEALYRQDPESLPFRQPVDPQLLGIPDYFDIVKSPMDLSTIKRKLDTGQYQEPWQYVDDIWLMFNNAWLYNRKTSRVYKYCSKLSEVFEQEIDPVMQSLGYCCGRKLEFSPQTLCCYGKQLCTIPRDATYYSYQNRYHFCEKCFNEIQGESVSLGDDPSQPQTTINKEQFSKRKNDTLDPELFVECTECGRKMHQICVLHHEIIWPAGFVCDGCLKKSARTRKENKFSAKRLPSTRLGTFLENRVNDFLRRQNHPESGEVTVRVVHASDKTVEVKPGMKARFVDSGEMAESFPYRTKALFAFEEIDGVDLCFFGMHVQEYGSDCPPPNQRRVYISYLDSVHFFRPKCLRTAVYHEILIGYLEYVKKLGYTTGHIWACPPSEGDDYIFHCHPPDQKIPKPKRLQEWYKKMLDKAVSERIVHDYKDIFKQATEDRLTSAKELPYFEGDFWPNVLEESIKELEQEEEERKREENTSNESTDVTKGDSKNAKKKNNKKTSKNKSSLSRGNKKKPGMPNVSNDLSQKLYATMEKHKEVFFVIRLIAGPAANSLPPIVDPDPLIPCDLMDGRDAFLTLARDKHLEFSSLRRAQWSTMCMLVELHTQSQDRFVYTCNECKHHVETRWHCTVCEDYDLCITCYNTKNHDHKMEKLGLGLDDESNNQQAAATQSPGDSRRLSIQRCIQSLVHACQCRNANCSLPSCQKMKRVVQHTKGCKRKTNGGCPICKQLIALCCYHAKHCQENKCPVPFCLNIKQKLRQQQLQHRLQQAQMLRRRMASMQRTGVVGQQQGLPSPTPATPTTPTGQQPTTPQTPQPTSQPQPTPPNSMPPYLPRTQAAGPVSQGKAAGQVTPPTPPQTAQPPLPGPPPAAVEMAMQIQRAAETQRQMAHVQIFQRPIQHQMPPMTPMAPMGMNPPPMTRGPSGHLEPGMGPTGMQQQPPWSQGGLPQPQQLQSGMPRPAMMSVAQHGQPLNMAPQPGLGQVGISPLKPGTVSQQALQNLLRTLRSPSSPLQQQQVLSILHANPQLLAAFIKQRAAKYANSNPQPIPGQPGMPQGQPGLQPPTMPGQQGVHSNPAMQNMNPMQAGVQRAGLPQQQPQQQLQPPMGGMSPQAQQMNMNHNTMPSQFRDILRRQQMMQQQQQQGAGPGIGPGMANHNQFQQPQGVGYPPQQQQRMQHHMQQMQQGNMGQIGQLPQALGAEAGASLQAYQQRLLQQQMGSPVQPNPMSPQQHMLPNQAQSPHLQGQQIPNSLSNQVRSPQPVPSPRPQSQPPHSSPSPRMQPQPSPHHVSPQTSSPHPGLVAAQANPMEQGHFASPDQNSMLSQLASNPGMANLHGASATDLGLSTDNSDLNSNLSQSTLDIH

Structure (SMILES) | IC50 [nM]
Cc1cc(-c2ccc(/C=C3/SC(=O)N(c4ccc(C(=O)O)cc4)C3=O)o2)c([N+](=O)[O-])cc1C | > 10000
Cc1cc(-c2ccc(/C=C3/NC(=O)N(c4ccc(C(=O)O)cc4)C3=O)o2)c([N+](=O)[O-])cc1C | > 10000
CC1=NN(c2ccc(C(=O)O)cc2)C(=O)C1CCC(=O)Nc1cc(C)c(C)cc1[N+](=O)[O-] (stereo unspecified) | > 10000
CC1=NN(c2ccc(C(=O)O)cc2)C(=O)/C1=C\c1ccc(-c2ccccc2P(C)(C)=O)o1 | > 10000
CC1=NN(c2ccc(C(=O)O)cc2)C(=O)C1CC(=O)Nc1cc(C)c(C)cc1[N+](=O)[O-] (stereo unspecified) | 9610
Cc1cc(Cc2ccc3c(cnn3-c3ccc(C(=O)O)cc3)c2)c([N+](=O)[O-])cc1C | > 10000
Cc1cc(C(=O)c2ccc3c(cnn3-c3ccc(C(=O)O)cc3)c2)c([N+](=O)[O-])cc1C | > 10000

Now those with a lower IC50, led by results:

IC50 [nM] | Structure (SMILES)
1170 | CC1=NN(c2ccc(C(=O)O)cc2)C(=O)/C1=C\c1ccc(-c2ccccc2C(F)F)o1
860 | CC1=NN(c2ccc(C(=O)O)cc2)C(=O)/C1=C\c1cnc(-c2cc(C)c(C)cc2[N+](=O)[O-])s1
4060 | CC1=NN(c2ccc(S(C)(=O)=O)cc2)C(=O)/C1=C\c1ccc(-c2cc(C)c(C)cc2[N+](=O)[O-])o1
560 | CC1=NN(c2ccc(C(=O)O)cc2)C(=O)/C1=C\c1ccc(-c2ccccc2[N+](=O)[O-])o1
670 | CC1=NN(c2ccc(-c3nn[nH]n3)cc2)C(=O)/C1=C\c1ccc(-c2cc(C)c(C)cc2[N+](=O)[O-])o1
190 | CCC1=NN(c2ccc(C(=O)O)cc2)C(=O)/C1=C\c1ccc(-c2cc(C)c(C)cc2[N+](=O)[O-])o1
470 | CC1=NN(c2ccc(P(=O)(O)O)cc2)C(=O)/C1=C\c1ccc(-c2cc(C)c(C)cc2[N+](=O)[O-])o1
1530 | CC1=NN(c2ccc(C#N)cc2)C(=O)/C1=C\c1ccc(-c2cc(C)c(C)cc2[N+](=O)[O-])o1
1950 | CC1=NN(c2ccc(C(=O)O)cc2)C(=O)/C1=C\c1ccc(-c2cc(C)c(C)cc2[N+](=O)[O-])[nH]1
